One block for each molecule: values may come before it.
Columns and labels:
[1] = target: T1, Steryl-sulfatase (Homo sapiens) (UniProt P08842); test: Inhibitory potency against recombinant human steroid sulfatase relative to compound 3 = 1
T1 sequence (whole entry): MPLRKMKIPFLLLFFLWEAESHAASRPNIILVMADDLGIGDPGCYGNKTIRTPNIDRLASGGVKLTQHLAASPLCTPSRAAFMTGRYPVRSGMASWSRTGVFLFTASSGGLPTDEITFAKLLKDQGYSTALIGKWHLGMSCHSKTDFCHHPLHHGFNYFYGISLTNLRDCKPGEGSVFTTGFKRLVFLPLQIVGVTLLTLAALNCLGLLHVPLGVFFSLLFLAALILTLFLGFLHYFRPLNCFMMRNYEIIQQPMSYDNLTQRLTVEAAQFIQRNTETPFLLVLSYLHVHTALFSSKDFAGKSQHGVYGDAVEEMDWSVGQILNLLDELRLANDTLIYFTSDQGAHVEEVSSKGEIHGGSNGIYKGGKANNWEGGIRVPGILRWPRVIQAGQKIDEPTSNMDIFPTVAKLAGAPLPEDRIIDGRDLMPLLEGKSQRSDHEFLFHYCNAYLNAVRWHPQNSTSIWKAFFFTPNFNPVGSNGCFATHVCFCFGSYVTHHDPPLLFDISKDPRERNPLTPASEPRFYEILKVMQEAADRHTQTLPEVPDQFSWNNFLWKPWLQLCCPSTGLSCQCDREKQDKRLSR

[2] = target: T1, Steryl-sulfatase (Homo sapiens)
Description: Tested for relative inhibitory potency against recombinant human steroid sulfatase

[3] = target: T1, Steryl-sulfatase (Homo sapiens); test: kcat value was determined
[4] = compound: C[C@]12CC[C@@H]3c4ccc(OS(N)(=O)=O)cc4CC[C@H]3[C@@H]1CCC2=O; test: (§1) Tested for inhibitory potency against recombinant human steroid sulfatase
[5] = compound: Cc1cc(=O)oc2cc(OS(N)(=O)=O)ccc12; test: as §1
[6] = compound: O=c1oc2cc(OS(=O)(=O)O)ccc2c2ccccc12; test: as §1

- rIC50 [1]: 48
Molecule: NS(=O)(=O)Oc1ccc2cc(-c3ccccc3)c(=O)oc2c1

- rIC50 [1]: > 250
Molecule: Cc1c(-c2ccccc2)c(=O)oc2ccc(OS(N)(=O)=O)cc12

- k cat [3]: 0.24 s⁻¹
Molecule: O=c1oc2cc(OS(=O)(=O)O)ccc2c2ccccc12

- rIC50 [1]: > 160
Molecule: NS(=O)(=O)Oc1ccc2c(c1)oc1c3ccccc3oc(=O)c21

- rIC50 [1]: 11
Molecule: Cc1c(-c2ccccc2)c(=O)oc2cc(OS(N)(=O)=O)ccc12

- rIC50 [1]: 3
Molecule: NS(=O)(=O)Oc1ccc2c(c1)oc(=O)c1ccccc12

- rIC50 [1]: 5
Molecule: NS(=O)(=O)Oc1ccc2c(c1)oc(=O)c1c3ccccc3oc21

Second part, the molecule before the results:

Molecule: Cc1cc(=O)oc2cc(OS(N)(=O)=O)ccc12
- rIC50 [1]: 30

Molecule: C[C@]12CC[C@@H]3c4ccc(OS(N)(=O)=O)cc4CC[C@H]3[C@@H]1CCC2=O
- rIC50 [2]: 1

Molecule: NS(=O)(=O)Oc1ccc2cc(-c3nc4ccccc4s3)c(=O)oc2c1
- rIC50 [1]: > 250

Molecule: NS(=O)(=O)Oc1ccc2c(c1)oc(=O)c1c3ccc(O)cc3oc21
- rIC50 [1]: 3.5

B1: Steryl-sulfatase (Homo sapiens), P08842 (protein)
chain: T1 sequence (whole entry)
- Km [4]: 95 µM
- Km [5]: 275 µM
- Km [6]: 22.5 µM
